Measurements as given in ChEMBL document CHEMBL3526152, “Cytoprotective effect of 20S-Rg3 on benzo[a]pyrene-induced DNA damage” (Drug Metab Dispos, 2012).
Active and inactive are the calls of the source. The rule behind the calls is not given here.

How the values were obtained:
HDF [1] = test: Cytoprotective activity in neonatal HDF assessed as reduction of BaP-induced cell death at 10 uM after 24 hrs by MTT assay; format: functional; conditions: Homo sapiens
[2] = Cytotoxicity against neonatal HDF assessed as cell viability at 10 uM after 24 hrs by MTT assay relative to control; format: functional; conditions: Homo sapiens, read-out: Activity
[3] = Cytoprotective activity in neonatal HDF assessed as reduction of BaP-induced DNA strand breakage by measuring tunnel positive cells at 10 uM after 24 hrs (reference value: 15.96%); format: functional, Homo sapiens; design: scale not given: the % may be the effect or the level left
HDF [4] = test: Cytoprotective activity in neonatal HDF assessed as reduction of BaP-induced tail moment at 10 uM after 24 hrs by comet assay; format: functional; conditions: Homo sapiens
[5] = biological target: T1, Nuclear factor erythroid 2-related factor 2 (Homo sapiens) (UniProt Q16236); test: Induction of Nrf2 nuclear translocation in BaP-treated neonatal HDF at 10 uM after 2 hrs by DAPI staining-based confocal scanning laser microcopic analysis in presence of PI3K/Akt inhibitor LY294002
T1 sequence (whole entry): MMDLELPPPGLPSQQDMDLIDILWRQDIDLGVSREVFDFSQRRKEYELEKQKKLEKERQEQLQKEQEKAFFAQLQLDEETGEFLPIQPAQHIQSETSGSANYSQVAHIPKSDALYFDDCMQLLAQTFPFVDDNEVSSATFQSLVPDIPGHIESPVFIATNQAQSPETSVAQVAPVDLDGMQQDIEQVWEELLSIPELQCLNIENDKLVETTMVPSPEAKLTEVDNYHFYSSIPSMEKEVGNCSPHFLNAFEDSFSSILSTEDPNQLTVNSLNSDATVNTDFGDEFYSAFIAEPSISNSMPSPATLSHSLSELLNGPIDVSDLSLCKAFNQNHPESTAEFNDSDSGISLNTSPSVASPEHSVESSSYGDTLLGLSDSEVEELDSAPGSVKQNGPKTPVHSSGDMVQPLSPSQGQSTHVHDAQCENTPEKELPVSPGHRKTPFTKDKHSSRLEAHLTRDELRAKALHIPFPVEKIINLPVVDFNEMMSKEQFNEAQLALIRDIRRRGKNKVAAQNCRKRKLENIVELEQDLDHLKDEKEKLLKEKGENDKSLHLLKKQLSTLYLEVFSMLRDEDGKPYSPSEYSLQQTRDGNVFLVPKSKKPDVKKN

[6] = biological target: T1, Nuclear factor erythroid 2-related factor 2 (Homo sapiens); test: Induction of Nrf2 nuclear translocation in BaP-treated neonatal HDF assessed as upregulation of NQO1 mRNA expression at 10 uM after 24 hrs by real-time PCR analysis relative to BaP-treated control
HDF [7] = test: Cytoprotective activity in neonatal HDF assessed as reduction of BaP-induced tail moment at 10 uM after 24 hrs by comet assay in presence of PI3K/Akt inhibitor LY294002; format: functional; conditions: Homo sapiens
[8] = biological target: RAC-alpha serine/threonine-protein kinase (Homo sapiens) (UniProt P31749); test: Induction of AKT phosphorylation at Ser473 in neonatal HDF at 10 uM by Western blot analysis; conditions: TDE = time-dependent effect
RAC-alpha serine/threonine-protein kinase (Homo sapiens), sequence (P31749 whole entry): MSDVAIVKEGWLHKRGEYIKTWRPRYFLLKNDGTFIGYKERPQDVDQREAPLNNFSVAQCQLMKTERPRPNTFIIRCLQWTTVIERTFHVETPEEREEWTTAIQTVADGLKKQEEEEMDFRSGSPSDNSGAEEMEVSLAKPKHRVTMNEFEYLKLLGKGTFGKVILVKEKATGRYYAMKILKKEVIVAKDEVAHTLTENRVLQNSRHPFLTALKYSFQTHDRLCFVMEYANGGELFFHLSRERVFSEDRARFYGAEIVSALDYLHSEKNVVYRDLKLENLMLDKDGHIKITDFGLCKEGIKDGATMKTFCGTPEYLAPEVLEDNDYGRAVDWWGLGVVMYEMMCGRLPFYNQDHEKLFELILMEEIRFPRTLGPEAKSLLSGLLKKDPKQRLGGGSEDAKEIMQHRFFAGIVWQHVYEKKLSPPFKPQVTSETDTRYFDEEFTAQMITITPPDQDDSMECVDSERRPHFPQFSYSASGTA

[9] = biological target: T2, Nuclear receptor subfamily 1 group I member 2 (Homo sapiens, UniProt O75469); test: Competitive binding affinity to PXR in human HepG2 cells at 0.01 to 50 uM by FRET analysis in presence of […]; format: cell-based
T2 sequence (O75469 whole entry): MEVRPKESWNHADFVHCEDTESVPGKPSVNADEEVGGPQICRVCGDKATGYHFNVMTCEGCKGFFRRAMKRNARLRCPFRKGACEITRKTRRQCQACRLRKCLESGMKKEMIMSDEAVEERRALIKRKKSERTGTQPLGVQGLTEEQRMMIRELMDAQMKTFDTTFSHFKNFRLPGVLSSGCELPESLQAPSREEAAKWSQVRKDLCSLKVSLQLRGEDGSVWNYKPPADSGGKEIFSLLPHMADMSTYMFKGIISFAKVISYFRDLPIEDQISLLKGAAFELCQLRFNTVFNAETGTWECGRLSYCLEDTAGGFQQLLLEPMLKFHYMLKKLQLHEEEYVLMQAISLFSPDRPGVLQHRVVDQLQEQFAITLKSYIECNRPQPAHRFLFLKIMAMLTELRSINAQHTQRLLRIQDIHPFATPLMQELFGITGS

HepG2 [10] = test: Cytoprotective activity in human HepG2 cells transfected with siPXR assessed as reduction of BaP-induced tail moment at 10 uM after 24 hrs by comet assay; format: functional, cell-based
Plasma = test: Plasma concentration in human at 60 mg by HPLC-MS analysis; format: ADME
HepG2 [11] = test: Cytoprotective activity in human HepG2 cells assessed as reduction of BaP-induced tail moment at 10 uM after 24 hrs by comet assay; format: functional, cell-based
Homo sapiens = species on record: Homo sapiens; test: Induction of ERK phosphorylation at Thr202/Try204 in neonatal HDF at 10 uM by Western blot analysis; conditions: TDE = time-dependent effect
[12] = biological target: T1, Nuclear factor erythroid 2-related factor 2 (Homo sapiens); test: Induction of Nrf2 nuclear translocation in neonatal HDF at 10 uM after 2 hrs by DAPI staining-based confocal scanning laser microcopic analysis
[13] = biological target: T1, Nuclear factor erythroid 2-related factor 2 (Homo sapiens); test: Induction of Nrf2 nuclear translocation in BaP-treated neonatal HDF at 10 uM after 2 hrs by DAPI staining-based confocal scanning laser microcopic analysis

Row | Structure (SMILES) | Activity (HDF [1]) | viability at 10 µM [2] [%] | Activity [3] [%] | Activity (HDF [4]) | Activity [5] | fold change (FC) [6] | Activity (HDF [7]) | Activity [8] | Activity [9] | Activity (HepG2 [10]) | concentration (Plasma) [nM] | Activity (HepG2 [11]) | Activity (Homo sapiens) | Activity [12] | Activity [13]
1 | CC(C)=CCC[C@@](C)(O)[C@H]1CC[C@]2(C)[C@@H]1[C@H](O)C[C@@H]1[C@@]3(C)CC[C@H](O[C@@H]4O[C@H](CO)[C@@H](O)[C@H](O)[C@H]4O[C@@H]4O[C@H](CO)[C@@H](O)[C@H](O)[C@H]4O)C(C)(C)[C@@H]3CC[C@]12C | inactive | 105 | 12.76 | inactive | – | – | – | – | – | – | – | – | – | – | –
2 | CC(C)=CCC[C@](C)(O)[C@H]1CC[C@]2(C)[C@@H]1[C@H](O)C[C@@H]1[C@@]3(C)CC[C@H](O[C@@H]4O[C@H](CO)[C@@H](O)[C@H](O)[C@H]4O[C@@H]4O[C@H](CO)[C@@H](O)[C@H](O)[C@H]4O)C(C)(C)[C@@H]3CC[C@]12C | Active | 124 | 3.07 | Active | inactive | 2 | inactive | tde | Active | inactive | 3 | Active | tde | Active | Active
3 | CC(C)=CCC[C@](C)(O[C@@H]1O[C@H](CO[C@@H]2O[C@H](CO)[C@@H](O)[C@H](O)[C@H]2O)[C@@H](O)[C@H](O)[C@H]1O)[C@H]1CC[C@]2(C)[C@@H]1[C@H](O)C[C@@H]1[C@@]3(C)CC[C@H](O[C@@H]4O[C@H](CO)[C@@H](O)[C@H](O)[C@H]4O[C@@H]4O[C@H](CO)[C@@H](O)[C@H](O)[C@H]4O)C(C)(C)[C@@H]3CC[C@]12C [GINSENOSIDE RB1] | inactive | 91 | 9.77 | inactive | – | – | – | – | – | – | – | – | – | – | –
4 | CC(C)=CCC[C@](C)(O[C@@H]1O[C@H](CO)[C@@H](O)[C@H](O)[C@H]1O)[C@H]1CC[C@]2(C)[C@@H]1[C@H](O)C[C@@H]1[C@@]3(C)CC[C@H](O)C(C)(C)[C@@H]3[C@@H](O[C@@H]3O[C@H](CO)[C@@H](O)[C@H](O)[C@H]3O)C[C@]12C [GINSENOSIDE RG1] | inactive | 98 | 20.97 | inactive | – | – | – | – | – | – | – | – | – | – | –
